# Results: publication PMC11035696, “Prospective de novo drug design with deep interactome learning” (Nature Communications, 2024)
# Several values for one entry are separate records, joined by “and”; a condition that tells them apart may be missing. Equal entries are not always repeated. Entries after “also recorded” stand apart in the source; their conditions may differ.
# Tests used:
# [1] = molecular target: T1, retinoic acid receptor (RAR)α (Homo sapiens, UniProt P10276); assay: Nuclear receptor selectivity profiling, hybrid reporter gene assay, RARα; format: cell-based
# T1 construct: RARα (pFA-CMV-hRARα-LBD[104], 1 μM tretinoin); expressed in transfected cells; host or cells: HEK293T
# T1 sequence (P10276 183-417 limits assumed): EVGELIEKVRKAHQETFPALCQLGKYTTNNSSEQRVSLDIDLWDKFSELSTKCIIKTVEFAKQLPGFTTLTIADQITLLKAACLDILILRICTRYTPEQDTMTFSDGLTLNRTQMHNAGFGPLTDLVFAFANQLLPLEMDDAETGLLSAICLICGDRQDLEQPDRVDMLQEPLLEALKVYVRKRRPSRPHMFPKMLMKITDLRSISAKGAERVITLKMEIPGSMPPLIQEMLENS
# Description: (§1) Compounds 1–3 were characterized in a hybrid reporter gene assay for their agoniztic effect on human nuclear receptors PPARα/γ/δ, RXRα, FXRα, RARα in HEK293T cells. Compound 1 was tested in an isothermal titration calorimetry (ITC) assay to measure direct binding affinity to the ligand-binding domain of PPARγ. ADME properties were measured in standardized assays at Roche.
# PPAR activation was determined in uniform Gal4-hybrid reporter gene assays for the PPARα, PPARγ and PPARδ isoforms in HEK293T cells (German Collection of Microorganisms and Cell Culture GmbH, DSMZ) which were transiently transfected with pFR-Luc (Stratagene, La Jolla, CA, USA; reporter) and pRL-SV40 (Promega, Madison, WI, USA; internal control) and one pFA-CMV-hPPAR-LBD[97] clone, coding for the hinge region and ligand binding domain of the canonical isoform of human PPARα, PPARγ, PPARδ or respectively. Cells were cultured in Dulbecco’s modified Eagle’s medium (DMEM), high glucose supplemented with 10% fetal calf serum (FCS), sodium pyruvate (1 mM), penicillin (100 U ⋅ ml^-1), and streptomycin (100 μg ⋅ ml^-1) at 37 °C and 5% CO2 and seeded in 96-well plates (3 × 10^4 cells per well). After 24 h, medium was changed to Opti-MEM without supplements and cells were transiently transfected using Lipofectamine LTX reagent (Invitrogen) according to the manufacturer’s protocol. Five hours after transfection, cells were incubated with the test compounds in Opti-MEM supplemented with penicillin (100 U ⋅ ml^-1), streptomycin (100 μg ⋅ ml^-1) and 0.1% DMSO for 16 h before luciferase activity was measured using the Dual-Glo Luciferase Assay System (Promega) according to the manufacturer’s protocol on a Tecan Spark luminometer (Tecan Deutschland GmbH, Germany). Firefly luminescence was divided by Renilla luminescence and multiplied by 1000 resulting in relative light units (RLU) to normalize for transfection efficiency and cell growth. Fold activation was obtained by dividing the mean RLU of a test compound by the mean RLU of the untreated control. All samples were tested in at least three biologically independent experiments in duplicates. For dose-response curve fitting and calculation of EC50 values, the equation “[Agonist] versus response (variable slope—four parameters)” was used in GraphPad Prism (version 7.00, GraphPad Software, La Jolla, CA, USA) with fold activation data. The reference agonizts GW7647 (PPARα)[98],[99], pioglitazone (PPARγ)[100],[101] and L165,041 (PPARδ)[102],[103] were used to validate the assays and to monitor assay performance. Nuclear receptor selectivity profiling was performed with corresponding pFA-CMV-hNR-LBD clones and suitable reference agonizts on RARα (pFA-CMV-hRARα-LBD[104], 1 μM tretinoin), LXRα (pFA-CMV-hLXRα-LBD[104], 1 μM TO901317) and RXRα (pFA-CMV-h RXRα-LBD[105], 1 μM Bexarotene).
# [2] = tested on: cytochrome P450 isoenzymes (Cyp3A4, Cyp1A2, Cyp2B6, Cyp2C9, Cyp2D6, Cyp2C19, Cyp2C8); assay: CYP inhibition, summary over seven isoenzymes; format: in vitro ADME; details: dose-response experiments up to 20 μM, result in words
# Description: (§2) SI11Absorption Distribution Metabolism and Excretion and Toxicity Data
# (§3) To assess the drug-like characteristics of the newly designed PPAR modulators, a series of tests were conducted covering various aspects of absorption, distribution, metabolism, and excretion (ADME) properties. Specifically, these assessments included the parallel artificial membrane permeability assay (PAMPA) with permeation co- […]
# efficients ([…]), LogD measurements, microsomal clearance, hepatocyte clearance, P-glycoprotein (Pgp) efflux ratio and binding and the unbound free fraction. Furthermore, the evaluation of inhibition po-tential against cytochrome P450 isoenzymes (CYP) proteins was investigated. For seven selected CYP proteins (i.e., Cyp3A4, Cyp1A2, Cyp2B6, Cyp2C9, Cyp2D6, Cyp2C19, and Cyp2C8) the half maximal inhibitory con-centration (IC50) was determined. (Table S15). […]
# activity in the CYP assays was found.
# Table S14: Absorption distribution metabolism and excretion (ADME) properties of compounds 1 and 2. […]
# The values for microsomal clearance and CYP-inhibition represent single point measurements. […]
# Molecule Enzyme Substrate IC50 (µM) […]
# GSK-3A = GSK-3A (Homo sapiens, UniProt P49840); assay: Safety off-target panel, enzymatic; format: biochemical; details: single point
# Sequence of GSK-3A (P49840 whole entry): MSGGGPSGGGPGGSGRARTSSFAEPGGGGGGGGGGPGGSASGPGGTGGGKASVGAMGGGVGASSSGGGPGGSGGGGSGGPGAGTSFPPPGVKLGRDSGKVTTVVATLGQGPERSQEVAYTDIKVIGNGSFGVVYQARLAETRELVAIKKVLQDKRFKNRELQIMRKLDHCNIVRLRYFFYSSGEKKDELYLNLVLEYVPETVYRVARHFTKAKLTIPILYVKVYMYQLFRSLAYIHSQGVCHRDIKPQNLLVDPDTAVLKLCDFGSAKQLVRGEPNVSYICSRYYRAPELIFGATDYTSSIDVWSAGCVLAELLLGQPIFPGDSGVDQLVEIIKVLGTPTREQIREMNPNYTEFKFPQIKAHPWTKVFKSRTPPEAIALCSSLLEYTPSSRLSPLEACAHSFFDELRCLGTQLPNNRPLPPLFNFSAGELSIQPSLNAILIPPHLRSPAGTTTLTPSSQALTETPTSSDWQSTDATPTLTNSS
# Text: (§4) Table S9-S12 list all targets, their species, inhibition (%) and assay type for the experiments conducted in the
# (§5) off-targets. […] The numbers for mean
# (§6) inhibition (%) represent single point measurements.
# (§7) off-targets. […] The numbers for
# (§8) mean inhibition (%) represent single point measurements.
# PHOSPHODIESTERASE 4D2 = PHOSPHODIESTERASE 4D2 (Homo sapiens, UniProt Q08499); assay: Safety off-target panel, enzymatic; format: biochemical; details: single point
# Sequence of UniProt Q08499 (Q08499 303-809 limits assumed): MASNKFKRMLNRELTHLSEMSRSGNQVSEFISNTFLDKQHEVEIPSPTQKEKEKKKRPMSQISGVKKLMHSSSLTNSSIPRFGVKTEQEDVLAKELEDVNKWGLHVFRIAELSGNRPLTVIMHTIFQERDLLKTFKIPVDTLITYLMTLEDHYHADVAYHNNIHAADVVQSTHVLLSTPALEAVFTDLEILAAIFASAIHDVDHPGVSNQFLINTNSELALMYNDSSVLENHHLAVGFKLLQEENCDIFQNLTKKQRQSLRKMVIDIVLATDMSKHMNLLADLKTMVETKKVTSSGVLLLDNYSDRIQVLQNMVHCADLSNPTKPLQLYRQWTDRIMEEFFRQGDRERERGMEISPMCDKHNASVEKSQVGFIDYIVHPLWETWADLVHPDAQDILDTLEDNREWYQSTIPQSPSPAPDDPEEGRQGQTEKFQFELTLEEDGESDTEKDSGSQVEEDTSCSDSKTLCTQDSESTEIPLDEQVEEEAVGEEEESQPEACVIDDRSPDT
# Text: as §4, §5, §6, §7, §8
# ZAP70 = ZAP70 (Homo sapiens, UniProt P43403); assay: Safety off-target panel, enzymatic; format: biochemical; details: single point
# Sequence of ZAP70 (P43403 whole entry): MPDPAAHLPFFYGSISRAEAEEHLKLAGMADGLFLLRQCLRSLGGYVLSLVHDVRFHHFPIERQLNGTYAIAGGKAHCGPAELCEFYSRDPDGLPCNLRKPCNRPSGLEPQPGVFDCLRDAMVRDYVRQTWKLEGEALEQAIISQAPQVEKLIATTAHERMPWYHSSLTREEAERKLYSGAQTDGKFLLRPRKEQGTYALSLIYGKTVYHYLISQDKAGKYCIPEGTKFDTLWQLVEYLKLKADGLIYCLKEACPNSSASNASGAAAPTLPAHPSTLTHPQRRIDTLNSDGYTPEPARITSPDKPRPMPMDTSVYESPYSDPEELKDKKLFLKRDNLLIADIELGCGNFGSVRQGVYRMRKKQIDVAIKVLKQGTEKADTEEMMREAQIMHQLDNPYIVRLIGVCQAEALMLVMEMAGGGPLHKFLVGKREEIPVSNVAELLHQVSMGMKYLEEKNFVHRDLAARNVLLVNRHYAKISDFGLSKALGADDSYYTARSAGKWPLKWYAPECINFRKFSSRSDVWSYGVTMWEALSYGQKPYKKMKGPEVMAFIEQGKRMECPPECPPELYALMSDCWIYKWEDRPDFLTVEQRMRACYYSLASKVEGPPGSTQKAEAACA
# Text: as §4, §5, §6, §7, §8
# CDK2 = CDK2 (Homo sapiens, UniProt P24941); assay: Safety off-target panel, enzymatic; format: biochemical; details: single point
# Text: as §4, §5, §6, §7, §8
# [3] = Hepatocyte clearance, human; format: in vitro ADME; design: Hepatocyte clearance human: unit not given here; details: for Hepatocyte clearance human: human hepatocytes, as printed in Table S14
# Description: as §1, §2, §3
# efficients ([…]), LogD measurements, microsomal clearance, hepatocyte clearance, P-glycoprotein (Pgp) efflux ratio and binding and the unbound free fraction. […]
# Table S14: Absorption distribution metabolism and excretion (ADME) properties of compounds 1 and 2. The […]
# values for […], LogD, protein binding, P-glycoprotein (Pgp) efflux ratio and permeability, and hepato-cyte clearance are presented as the mean and standard deviation, with a sample size of N = 3, i.e., 3 technical replicates each. The values for microsomal clearance and CYP-inhibition represent single point measurements.
# Microsomal clearance, human (µL·min−1·mg−1 protein) ≥10 ≥10 ≥10
# Microsomal clearance, mouse (µL·min−1·mg−1 protein) ≥10 ≥10 ≥10
# Microsomal clearance, rat (µL·min−1·mg−1 protein) ≥10 ≥10 ≥10
# Protein binding human (% free fraction) (%) - 0.21 0.42
# PgP Transport mouse apical efflux ratio - 1.6 1.2
# PgP Transport mouse permeability (nm·sec−1) - 15 60 […]
Compound,"RARα reporter activation, replicate values (DMSO ctrl = 1,000) ([1]; 3 µM)","RARα reporter activation, replicate values (DMSO ctrl = 1,000) ([1]; 10 µM)",interaction with the seven pivotal cytochrome P450 isoenzymes [2],inhibition at 10 µM (GSK-3A) [%],inhibition at 10 µM (PHOSPHODIESTERASE 4D2) [%],inhibition at 10 µM (ZAP70) [%],inhibition at 10 µM (CDK2) [%],clearance rate in human hepatocytes [3] [μL·min−1 10^6 cells−1],Hepatocyte clearance human [3]
Cc1nnc(-c2ccc(OCCCOc3ccc(CCC(=O)O)c(F)c3)c(F)c2)s1 [Compound 1],"0,775 and 0,698 and 0,825","1,145 and 0,633 and 0,940",did not echibit any relevant; also recorded: did not exhibit any relevant activity,39.6,3.1,-0.3,3.6,19,19
COc1ccc(Oc2ccc3ncn(CCOc4ccc(CCC(=O)O)cc4)c3c2)cc1 [Compound 2],"1,038 and 0,832 and 1,499","1,361 and 1,194 and 1,664",did not echibit any relevant; also recorded: did not exhibit any relevant activity,-8.8,-3.8,3.5,45.9,19,19
